Experimental data reported in paper PMC11277489, “Novel Piperazine Derivatives of Vindoline as Anticancer Agents” (International Journal of Molecular Sciences, 2024).

Tests used:
[1] = system: CCRF-CEM; assay: NCI60 one-dose screen (10 μM), Leukemia; type: cell-based; conditions: Homo sapiens, 10 μM, Leukemia, read-out: Growth percent rate
[2] = system: HL-60(TB); assay: NCI60 one-dose screen (10 μM), Leukemia; type: cell-based; conditions: Homo sapiens; 10 μM; HL-60(TB), Leukemia; read-out: Growth percent rate
[3] = system: K-562; assay: NCI60 one-dose screen (10 μM), Leukemia; type: cell-based; conditions: Homo sapiens, K562; 10 μM; K-562, Leukemia; read-out: Growth percent rate
[4] = system: MOLT-4; assay: NCI60 one-dose screen (10 μM), Leukemia; type: cell-based, human; conditions: Homo sapiens; 10 μM; MOLT-4, Leukemia; read-out: Growth percent rate
[5] = system: RPMI-8226; assay: NCI60 one-dose screen (10 μM), Leukemia; type: cell-based; conditions: Homo sapiens; 10 μM; RPMI-8226, Leukemia; read-out: Growth percent rate
[6] = system: A549/ATCC; assay: NCI60 one-dose screen (10 μM), Non-small Cell Lung Cancer; type: cell-based; conditions: Homo sapiens; 10 μM; A549/ATCC, Non-small Cell Lung Cancer; read-out: Growth percent rate
[7] = system: HOP-62; assay: as above; type: cell-based; conditions: Homo sapiens; 10 μM; HOP-62, Non-small Cell Lung Cancer; read-out: Growth percent rate
[8] = system: NCI-H23; assay: as above; type: cell-based; conditions: Homo sapiens; 10 μM; NCI-H23, Non-small Cell Lung Cancer; read-out: Growth percent rate
[9] = system: NCI-H322M; assay: as above; type: cell-based; conditions: Homo sapiens, 10 μM, Non-small Cell Lung Cancer, read-out: Growth percent rate
[10] = system: NCI-H460; assay: as above; type: cell-based; conditions: Homo sapiens; 10 μM; NCI-H460, Non-small Cell Lung Cancer; read-out: Growth percent rate
[11] = system: COLO 205; assay: NCI60 one-dose screen (10 μM), Colon Cancer; type: cell-based, human; conditions: Homo sapiens; 10 μM; COLO 205, Colon Cancer; read-out: Growth percent rate
[12] = system: HCT-15; assay: NCI60 one-dose screen (10 μM), Colon Cancer; type: cell-based; conditions: Homo sapiens; 10 μM; HCT-15, Colon Cancer; read-out: Growth percent rate
[13] = system: HT29; assay: NCI60 one-dose screen (10 μM), Colon Cancer; type: cell-based; conditions: Homo sapiens, HT-29; 10 μM; HT29, Colon Cancer; read-out: Growth percent rate
[14] = system: KM12; assay: NCI60 one-dose screen (10 μM), Colon Cancer; type: cell-based, human; conditions: Homo sapiens; 10 μM; KM12, Colon Cancer; read-out: Growth percent rate
[15] = system: SW-620; assay: NCI60 one-dose screen (10 μM), Colon Cancer; type: cell-based; conditions: Homo sapiens; 10 μM; SW-620, Colon Cancer; read-out: Growth percent rate
[16] = system: SF-268; assay: NCI60 one-dose screen (10 μM), CNS Cancer; type: cell-based; conditions: Homo sapiens; 10 μM; SF-268, CNS Cancer; read-out: Growth percent rate
[17] = system: SF-295; assay: NCI60 one-dose screen (10 μM), CNS Cancer; type: cell-based; conditions: Homo sapiens; 10 μM; SF-295, CNS Cancer; read-out: Growth percent rate
[18] = system: SF-539; assay: NCI60 one-dose screen (10 μM), CNS Cancer; type: cell-based, human; conditions: Homo sapiens; 10 μM; SF-539, CNS Cancer; read-out: Growth percent rate
[19] = system: SNB-19; assay: NCI60 one-dose screen (10 μM), CNS Cancer; type: cell-based; conditions: Homo sapiens; 10 μM; SNB-19, CNS Cancer; read-out: Growth percent rate
[20] = system: SNB-75; assay: NCI60 one-dose screen (10 μM), CNS Cancer; type: cell-based, human; conditions: Homo sapiens; 10 μM; SNB-75, CNS Cancer; read-out: Growth percent rate
[21] = system: U251; assay: NCI60 one-dose screen (10 μM), CNS Cancer; type: cell-based; conditions: Homo sapiens, U-251; 10 μM; U251, CNS Cancer; read-out: Growth percent rate
[22] = system: LOX IMVI; assay: NCI60 one-dose screen (10 μM), Melanoma; type: cell-based, human; conditions: Homo sapiens; 10 μM; LOX IMVI, Melanoma; read-out: Growth percent rate
[23] = system: MALME-3M; assay: NCI60 one-dose screen (10 μM), Melanoma; type: cell-based; conditions: Homo sapiens; 10 μM; MALME-3M, Melanoma; read-out: Growth percent rate
[24] = system: M14; assay: NCI60 one-dose screen (10 μM), Melanoma; type: cell-based; conditions: Homo sapiens; 10 μM; M14, Melanoma; read-out: Growth percent rate
[25] = system: MDA-MB-435; assay: NCI60 one-dose screen (10 μM), Melanoma; type: cell-based; conditions: Homo sapiens; 10 μM; MDA-MB-435, Melanoma; read-out: Growth percent rate
[26] = system: SK-MEL-2; assay: NCI60 one-dose screen (10 μM), Melanoma; type: cell-based; conditions: Homo sapiens; 10 μM; SK-MEL-2, Melanoma; read-out: Growth percent rate
[27] = system: SK-MEL-28; assay: NCI60 one-dose screen (10 μM), Melanoma; type: cell-based; conditions: Homo sapiens; 10 μM; SK-MEL-28, Melanoma; read-out: Growth percent rate
[28] = system: SK-MEL-5; assay: NCI60 one-dose screen (10 μM), Melanoma; type: cell-based, human; conditions: Homo sapiens; 10 μM; SK-MEL-5, Melanoma; read-out: Growth percent rate
[29] = system: UACC-257; assay: NCI60 one-dose screen (10 μM), Melanoma; type: cell-based; conditions: Homo sapiens; 10 μM; UACC-257, Melanoma; read-out: Growth percent rate
[30] = system: IGROV1; assay: NCI60 one-dose screen (10 μM), Ovarian Cancer; type: cell-based; conditions: Homo sapiens, IGROV-1; 10 μM; IGROV1, Ovarian Cancer; read-out: Growth percent rate
[31] = system: OVCAR-4; assay: NCI60 one-dose screen (10 μM), Ovarian Cancer; type: cell-based; conditions: Homo sapiens; 10 μM; OVCAR-4, Ovarian Cancer; read-out: Growth percent rate
[32] = system: OVCAR-8; assay: NCI60 one-dose screen (10 μM), Ovarian Cancer; type: cell-based; conditions: Homo sapiens; 10 μM; OVCAR-8, Ovarian Cancer; read-out: Growth percent rate
[33] = system: 786–0; assay: NCI60 one-dose screen (10 μM), Renal Cancer; type: cell-based; conditions: Homo sapiens; 10 μM; 786-0, Renal Cancer; read-out: Growth percent rate
[34] = system: A498; assay: NCI60 one-dose screen (10 μM), Renal Cancer; type: cell-based; conditions: Homo sapiens; 10 μM; A498, Renal Cancer; read-out: Growth percent rate
[35] = system: ACHN; assay: NCI60 one-dose screen (10 μM), Renal Cancer; type: cell-based; conditions: Homo sapiens, 10 μM, Renal Cancer, read-out: Growth percent rate
[36] = system: CAKI-1; assay: NCI60 one-dose screen (10 μM), Renal Cancer; type: cell-based; conditions: Homo sapiens; 10 μM; CAKI-1, Renal Cancer; read-out: Growth percent rate
[37] = system: RXF 393; assay: NCI60 one-dose screen (10 μM), Renal Cancer; type: cell-based, human; conditions: Homo sapiens; 10 μM; RXF 393, Renal Cancer; read-out: Growth percent rate
[38] = system: TK-10; assay: NCI60 one-dose screen (10 μM), Renal Cancer; type: cell-based; conditions: Homo sapiens; 10 μM; TK-10, Renal Cancer; read-out: Growth percent rate
[39] = system: DU-145; assay: NCI60 one-dose screen (10 μM), Prostate Cancer; type: cell-based; conditions: Homo sapiens; 10 μM; DU-145, Prostate Cancer; read-out: Growth percent rate
[40] = system: MCF7; assay: NCI60 one-dose screen (10 μM), Breast Cancer; type: cell-based; conditions: Homo sapiens; 10 μM; MCF7, Breast Cancer; read-out: Growth percent rate
[41] = system: 60 human tumor cell lines (NCI60); assay: NCI60 one-dose screen (10 μM), whole panel; type: cell-based; conditions: 10 μM; mean over 60 human cancer cell lines; read-out: Growth percent rate, Mean

With CCC12C=CCN3CCC4(c5cc(NC(=O)CN6CCN(C(=O)c7ccco7)CC6)c(OC)cc5N(C)C4C(O)(C(=O)OC)C1OC(C)=O)C32 (centres unmarked) [Compound 21] the activity at 10 µM [1] was 103%, the activity at 10 µM [2] was 114% and the activity at 10 µM [3] was 108%. The activity at 10 µM [4] was 101%, the activity at 10 µM [5] was 103% and the activity at 10 µM [6] was 101%. For the same compound, the activity at 10 µM [7] was 100%, the activity at 10 µM [8] was 106% and the activity at 10 µM [9] was 110%. For the same compound, the activity at 10 µM [10] was 108%, the activity at 10 µM [11] was 120% and the activity at 10 µM [12] was 107%. For the same compound, the activity at 10 µM [13] was 109%, the activity at 10 µM [14] was 99.8% and the activity at 10 µM [15] was 113%. The activity at 10 µM [16] was 106%, the activity at 10 µM [17] was 110% and the activity at 10 µM [18] was 114%. The activity at 10 µM [19] was 96.2%, the activity at 10 µM [20] was 91% and the activity at 10 µM [21] was 118%. It also gave an activity at 10 µM [22] of 98.5%, an activity at 10 µM [23] of 104% and an activity at 10 µM [24] of 110%. The activity at 10 µM [25] was 104%, the activity at 10 µM [26] was 111% and the activity at 10 µM [27] was 126%. For the same compound, the activity at 10 µM [28] was 105%, the activity at 10 µM [29] was 106% and the activity at 10 µM [30] was 127%. For the same compound, the activity at 10 µM [31] was 108%, the activity at 10 µM [32] was 101% and the activity at 10 µM [33] was 104%. For the same compound, the activity at 10 µM [34] was 104%, the activity at 10 µM [35] was 109% and the activity at 10 µM [36] was 97.5%. It also gave an activity at 10 µM [37] of 133%, an activity at 10 µM [38] of 109% and an activity at 10 µM [39] of 110%. For the same compound, the activity at 10 µM [40] was 98.3% and the activity at 10 µM [41] was 108%.
